Test results from US20250230193A1, “CYCLIC COMPOUND HAVING SELECTIVE KRAS INHIBITORY EFFECT ON HRAS AND NRAS” (CHUGAI SEIYAKU KABUSHIKI KAISHA, priority 2022, published 2025).

Experiments:
[1] = molecular target: GDP-bound HRAS wild-type protein (Homo sapiens, UniProt P01112); experiment: Binding to HRAS by surface plasmon resonance (SPR), Single Cycle Kinetics; details: SPR, GDP-bound HRAS wild-type vs GDP-bound KRAS wild-type
[2] = molecular target: GDP-bound NRAS wild-type protein (Homo sapiens, UniProt P01111); experiment: Binding to NRAS by surface plasmon resonance (SPR), Single Cycle Kinetics; details: SPR, GDP-bound NRAS wild-type vs GDP-bound KRAS wild-type
GDP-bound NRAS wild-type protein, sequence (P01111 whole entry): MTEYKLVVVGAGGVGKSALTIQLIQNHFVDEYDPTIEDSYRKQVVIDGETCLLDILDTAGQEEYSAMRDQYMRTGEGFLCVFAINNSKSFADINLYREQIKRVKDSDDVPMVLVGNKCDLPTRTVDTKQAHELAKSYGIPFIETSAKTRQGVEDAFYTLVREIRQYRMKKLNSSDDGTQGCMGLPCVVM

GDP-bound HRAS wild-type protein, sequence (P01112 whole entry): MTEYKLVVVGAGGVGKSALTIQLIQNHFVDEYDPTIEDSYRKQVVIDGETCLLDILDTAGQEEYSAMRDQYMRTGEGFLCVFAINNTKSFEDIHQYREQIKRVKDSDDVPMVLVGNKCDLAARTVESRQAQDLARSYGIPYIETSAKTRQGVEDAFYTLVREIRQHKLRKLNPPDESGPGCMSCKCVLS

Row | SMILES | HRAS/KRAS (ratio of KD value with respect to HRAS to KD value with respect to KRAS) [1] | NRAS/KRAS (ratio of KD value with respect to NRAS to KD value with respect to KRAS) [2]
1 | CCC[C@H]1C(=O)N[C@@H]([C@@H](C)CC)C(=O)N(C2CC2)CC(=O)N(C)[C@H]2C/C=C\CCN(C2=O)[C@@H](CC2CCCCC2)C(=O)N(C)CC(=O)N[C@@H](CCc2ccc(C(F)(F)F)c(OC)c2)C(=O)N2C[C@H](OCC)C[C@H]2C(=O)N(C)C2(CCC2)C(=O)N(C)[C@@H](C2CCCC2)C(=O)N(C)[C@H](C(=O)N(C)C)CC(=O)N1C [PP2340] | B (a compound having 3 or more and less than 10 is denoted as B) | B (a compound having 3 or more and less than 10 is denoted as B)
2 | CCC[C@H]1C(=O)N[C@@H]([C@@H](C)CC)C(=O)N2CCC[C@H]2C(=O)N(C)[C@H]2C/C=C\CCN(C2=O)[C@@H](CC2CCCCC2)C(=O)N(C)CC(=O)N[C@@H](CCc2ccc(C(F)(F)F)c(OC)c2)C(=O)N2C[C@H](OCC)C[C@H]2C(=O)N(C)C2(CCC2)C(=O)N(C)[C@@H](C(CC)CC)C(=O)N(C)[C@H](C(=O)N(C)C)CC(=O)N1C [PP2341] | A (a compound having 10 or more and less than 20 is denoted as A) | A (a compound having 10 or more and less than 20 is denoted as A)
3 | CCOC[C@H]1C(=O)N[C@@H]([C@@H](C)CC)C(=O)N(C2CC2)CC(=O)N(C)[C@H]2C/C=C\CCN(C2=O)[C@@H](CC2CCCCC2)C(=O)N(C)CC(=O)N[C@@H](CCc2ccc(C(F)(F)F)c(OC)c2)C(=O)N2C[C@H](OCC)C[C@H]2C(=O)N(C)C2(CCC2)C(=O)N(C)[C@@H](C2CCCC2)C(=O)N(C)[C@H](C(=O)N(C)C)CC(=O)N1C [PP2342] | A (a compound having 10 or more and less than 20 is denoted as A) | A (a compound having 10 or more and less than 20 is denoted as A)
4 | CCC[C@H]1C(=O)N[C@@H]([C@@H](C)CC)C(=O)N2CCC[C@H]2C(=O)N(C)[C@H]2C/C=C\CCN(C2=O)[C@@H](CC2CCCCC2)C(=O)N(C)CC(=O)N[C@@H](CCc2ccc(C(F)(F)F)c(OC)c2)C(=O)N2C[C@H](OCC)C[C@H]2C(=O)N(C)C2(CCC2)C(=O)N(C)[C@@H](C2CCCC2)C(=O)N(C)[C@H](C(=O)N(C)C)CC(=O)N1C [PP2344] | A (a compound having 10 or more and less than 20 is denoted as A) | A (a compound having 10 or more and less than 20 is denoted as A)
5 | CCC[C@H]1C(=O)N[C@@H]([C@@H](C)CC)C(=O)N(C)CC(=O)N(C)[C@H]2C/C=C\CCN(C2=O)[C@@H](CC2CCC(F)(F)CC2)C(=O)N(C)CC(=O)N[C@@H](CCc2ccc(C(F)(F)F)c(OC)c2)C(=O)N2C[C@H](OCC)C[C@H]2C(=O)N(C)C2(CCC2)C(=O)N(C)[C@@H](C(CC)CC)C(=O)N(C)[C@H](C(=O)N(C)C)CC(=O)N1C [PP2345] | A (a compound having 10 or more and less than 20 is denoted as A) | A (a compound having 10 or more and less than 20 is denoted as A)
6 | CCOC[C@H]1C(=O)N[C@@H]([C@@H](C)CC)C(=O)N(C)CC(=O)N(C)[C@H]2C/C=C\CCN(C2=O)[C@@H](CC2CCC(F)(F)CC2)C(=O)N(C)CC(=O)N[C@@H](CCc2ccc(C(F)(F)F)c(OC)c2)C(=O)N2C[C@H](OCC)C[C@H]2C(=O)N(C)C2(CCC2)C(=O)N(C)[C@@H](C(CC)CC)C(=O)N(C)[C@H](C(=O)N(C)C)CC(=O)N1C [PP2347] | A (a compound having 10 or more and less than 20 is denoted as A) | A (a compound having 10 or more and less than 20 is denoted as A)
